Source: patent US20100015225A1, “SOLID DISPERSION OF A NEUROKININ ANTAGONIST” (priority 2006, published 2010)

Assay: Super-saturation studies: in-vitro dissolution in different media (SGF, FaSSIF, FeSSIF, buffer pH 7)
Format: physicochemical
Conditions: ~4 mg/ml = 100% release
Text: The in-vitro dissolution of the HPMC-based solid dispersion 1B (Component 1B) and that of the enteric HPMC-P based solid dispersion 2D (Component 2D) were studied in different media and compared to the crystalline-hemihydrate or the amorphous compound A.

| Concentration of Compound A (FaSSIF, 10 min) | Concentration of Compound A (FaSSIF, 30 min) | Concentration of Compound A (FaSSIF, 60 min) | Concentration of Compound A (FaSSIF, 180 min) | Concentration of Compound A (FeSSIF, 10 min) | Concentration of Compound A (FeSSIF, 30 min) | Concentration of Compound A (FeSSIF, 60 min) | Concentration of Compound A (FeSSIF, 180 min) | Concentration of Compound A (SGF, 10 min) | Concentration of Compound A (SGF, 30 min) | Concentration of Compound A (SGF, 60 min) | Concentration of Compound A (SGF, 180 min) | SMILES |
| --- | --- | --- | --- | --- | --- | --- | --- | --- | --- | --- | --- | --- |
| 102 µg/mL | 63 µg/mL | 9 µg/mL | 0 µg/mL | 531 µg/mL | 575 µg/mL | 48 µg/mL | 49 µg/mL | 491 µg/mL | 0 µg/mL | 0 µg/mL | 0 µg/mL | CN(C(=O)c1cc(C(F)(F)F)cc(C(F)(F)F)c1)[C@@H](/C=C/C(=O)N[C@@H]1CCCCNC1=O)Cc1ccc(Cl)c(Cl)c1 [A-amorphous, (4R)-4-[N′-methyl-N′-(3,5-bistrifluoromethyl-benzoyl)-amino]-4-(3,4-dichlorobenzyl)-but-2-enoic acid N—[(R)-epsilon-caprolactam-3-yl]-amide] |
| 0 µg/mL | 0 µg/mL | 0 µg/mL | 0 µg/mL | 62 µg/mL | 54 µg/mL | 56 µg/mL | 44 µg/mL | 0 µg/mL | 0 µg/mL | 0 µg/mL | 0 µg/mL | CN(C(=O)c1cc(C(F)(F)F)cc(C(F)(F)F)c1)[C@@H](/C=C/C(=O)N[C@@H]1CCCCNC1=O)Cc1ccc(Cl)c(Cl)c1 [Compd A crystalline (hemihydrate), (4R)-4-[N′-methyl-N′-(3,5-bistrifluoro-methyl-benzoyl)-amino]-4-(3,4-dichlorobenzyl)-but-2-enoic acid N—[(R)-epsilon-caprolactam-3-yl]-amide semihydrate] |
